Source: the METLIN SMRT retention time set (Domingo-Almenara et al. 2019)

Experiment: gradient 5% acetonitrile 3 min, to 50% in 2 min, to 85% in 15 min, held 3 min, 100 µL/min
Details: column: Zorbax Extend-C18 2.1 x 50 mm; eluents: water / acetonitrile, 0.1% formic acid
Summary of the method: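 A Zorbax Extend-C18 column (2.1 × 50 mm, 1.8 μm) run at 100 μL/min with water and acetonitrile, both containing 0.1% formic acid, separated mixtures of ~100 pure standards. The HPLC was coupled to a quadrupole time-of-flight mass spectrometer operated in positive and negative ionization mode, with dead and dwell volumes of 40 μL and 900 μL. Each retention time was taken from a computationally picked adduct peak that was then manually inspected.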

| RP-LC retention time | Structure (SMILES) |
| --- | --- |
| 740 s | CNC(=O)C1CN(C(=O)Cc2cccc(Cl)c2)CC12CCCC2 (stereo not drawn) |
| 972 s | O=C(Cn1cnc2c(sc3nc(-c4ccccc4)ccc32)c1=O)NC1CCCCC1 |
| 713 s | CSc1cccc(NC(=O)CCc2c(-c3ccc(F)cc3)nc3ccccn23)c1 |
| 729 s | COc1ccc(-c2cn3c(CC(=O)NC4CCCCCC4)csc3n2)cc1OC |
| 931 s | O=C(COc1ccc(F)cc1)Nc1cnc(N2CCCCC2)nc1 |
| 722 s | COc1ccc(NC(=O)c2ccc3nc(-c4ccccc4)cn3c2)c(OC)c1 |
| 783 s | COc1ccc(NC(=O)C2CCN(S(=O)(=O)c3ccc4c(c3)NC(=O)C(C)O4)CC2)cc1 (stereo not drawn) |
| 769 s | COc1ccc(F)cc1S(=O)(=O)N1C[C@@H](F)C[C@H]1C(=O)N1CCCCC1 |
| 553 s | O=C([C@@H]1C[C@H](Oc2cccnc2)CN1C(=O)c1ccco1)N1CCCC1 |
| 980 s | O=C(NC1CCCCCCC1)C1CCCN(S(=O)(=O)c2c[nH]c(C(=O)N3CCCCCC3)c2)C1 (stereo not drawn) |
| 684 s | Cc1oc(C2CCN(C(=O)Nc3ccc(F)cc3)CC2)nc1C(=O)N(C)C |
| 859 s | COc1ccccc1NC(=O)Cn1nc2c(Oc3ccc(Cl)cc3)nccn2c1=O |
| 634 s | CCOC(=O)c1ccc(NC(=O)N(C)Cc2nc3cc(C(=O)N(C)C)ccc3n2C)cc1 |
| 598 s | COc1ccc(OC)c(S(=O)(=O)N2CCc3nn(CC4CC4)c(=O)n3CC2)c1 |
| 804 s | COc1cc(NC(=O)N2CCC(N3CCN(Cc4ccccc4)C3=O)CC2)cc(OC)c1 |
| 951 s | CCOc1ccc(-n2ccn3cc(-c4cc(C)ccc4C)nc3c2=O)cc1 |
| 838 s | COC(=O)c1cc(OCC(=O)Nc2cc(F)ccc2F)c2ccccc2n1 |
| 1070 s | CC1CCN(S(=O)(=O)c2ccc3c(ccn3CC(=O)NCC(C)c3ccccc3)c2)CC1 (stereo not drawn) |
| 784 s | COc1ccc(CC(=O)NC(CC(C)C)C(=O)Nc2nc3ccccc3[nH]2)c(Cl)c1 (stereo not drawn) |
| 819 s | O=C(c1ccsc1)N1CCCC1(CO)Cc1ccccc1 (stereo not drawn) |
| 1040 s | CC(=O)Oc1ccccc1C1=NN(C(C)=O)C(c2cccc(Br)c2)O1 (stereo not drawn) |
| 789 s | O=C(CN(c1ccc(F)cc1)S(=O)(=O)c1cccnc1)NCCc1ccccc1 |
| 938 s | Cc1ccc(-c2cn3c(CC(=O)NC4CCC(C)CC4)csc3n2)cc1C (stereo not drawn) |

| RP-LC retention time | Structure (SMILES) |
| --- | --- |
| 1120 s | Cc1ccc(NC(=O)N2CCCC(CC(=O)N3CCC(Cc4ccccc4)CC3)C2)cc1 (stereo not drawn) |
| 689 s | COc1cc(C(=O)Oc2ccc(/C=C/c3ccccn3)cc2)cc(OC)c1OC |
| 652 s | O=C(Cn1ccc2ccccc21)N1CCN(c2ccc(-c3ccccn3)nn2)CC1 |
| 749 s | CC(C)c1nnc(-c2cccnc2N2CCN(C(=O)c3ccc4[nH]ccc4c3)CC2)o1 |
| 1070 s | Cc1ccc(CNC(=O)c2c(C)sc3ncnc(N4CCCCC4)c23)cc1 |
| 673 s | CCC(=O)Nc1ccc(C2(C(=O)O)CCC2)cc1 |
| 1030 s | O=C(Cc1ccc(Cl)cc1)N1CCc2cc(-c3ccno3)ccc21 |
| 803 s | O=C(NC1CC1)c1ccc(OCC2CCCN(C(=O)c3ccc(F)cc3)C2)cc1 (stereo not drawn) |
| 784 s | CN(C)C(=O)c1csc(S(=O)(=O)N2CCC(C(=O)NCc3ccccc3Cl)CC2)c1 |
| 749 s | COc1ccc(C2(CNC(=O)c3cc(-c4ccccc4)n[nH]3)CCOCC2)cc1 |
| 961 s | Cn1cc(S(=O)(=O)N2CCCCC2)cc1C(=O)N1CCN(c2ccccc2F)CC1 |
| 1050 s | O=C(Cc1ccc(Cl)cc1)N1CCCn2nc(-c3ccc(Cl)cc3)cc2C1 |
| 966 s | O=C(NCCC1=CCCCC1)c1cnc(-c2ccccc2)nc1-c1ccncc1 |
| 732 s | Cc1ncc([N+](=O)[O-])n1CCOC(=O)c1ccc(F)cc1 |
| 648 s | COc1ccc(NC(=O)CSc2nnc3c4cc(-c5ccc(F)cc5)nn4ccn23)c(OC)c1 |
| 839 s | O=C(Nc1nnc(SCC(=O)N2CCc3ccccc32)s1)NC1CCCCC1 |
| 578 s | CC(NC(=O)CCNc1c(-c2ccc(F)cc2)nc2cnccn12)c1ccccn1 (stereo not drawn) |
| 918 s | CCc1ccc(NC(=O)CN2C(=O)CCCc3cc(S(=O)(=O)N4CCCC4)ccc32)cc1 |
| 820 s | O=c1ccc(S(=O)(=O)N2CCCC2)cn1Cc1ccc(F)cc1 |
| 642 s | Cc1ccc2c(Nc3ccc(C)c(F)c3)c(C(=O)N3CCSCC3)cnc2n1 |
| 629 s | COc1ccc(NC(=O)Nc2c(-c3ccc(F)cc3)nc3ccccn23)cc1OC |
| 963 s | CCOc1ccc(S(=O)(=O)NCc2c(-c3ccccc3)nc3sc(CC)nn23)cc1 |

The remaining lines, values behind:

| Structure (SMILES) | RP-LC retention time |
| --- | --- |
| CC(C)(C)n1nnnc1C1CC2(CCOCC2)C(=O)N1Cc1ccc(F)cc1F (stereo not drawn) | 809 s |
| CCN1CCCn2cc(S(=O)(=O)Nc3ccccc3)cc2C1=O | 666 s |
| Cc1nnc2cc(N3CCN(Cc4ccc(C(C)C)cc4)CC3)cnn12 | 613 s |
| O=C(CCS(=O)(=O)c1ccccc1)N1CCN(CC(F)(F)F)CC1 | 711 s |
| CCOC(=O)C1CCN(Cc2nc3nc(C)cc(N4CCOCC4)n3n2)CC1 | 576 s |
| Cc1ccc(C)c(NC(=O)Cn2c(C)cc(-c3nnc(C4CC4)o3)c2C)c1 | 851 s |
| COc1ccc(-c2nnc(-c3ccc(Cl)c(S(=O)(=O)N4CCOCC4)c3)o2)cc1OC | 884 s |
| COc1ccc(-c2nc3cnccn3c2Nc2ccc(Br)cc2)cc1OC | 884 s |
| Cc1ccc(-c2nc3cnccn3c2NCCC(=O)NC(C)c2cccs2)cc1 (stereo not drawn) | 734 s |
| Cc1cnc(C(=O)N2CCCCCCNC(=O)[C@@H]3CCCC[C@@H]32)cn1 | 694 s |
| O=C(NCc1ccccc1)C1CN(S(=O)(=O)c2cccnc2)CC12CCCCC2 (stereo not drawn) | 864 s |
| Cc1ccc(S(=O)(=O)c2ccccc2[N+](=O)[O-])cc1 | 874 s |
| Cn1cnc2cc(-c3noc(CNC(=O)c4ccccc4)n3)ccc21 | 614 s |
| COc1ccc(OC)c(NC(=O)Cn2cnc3c(sc4nc(-c5ccccc5)ccc43)c2=O)c1 | 1040 s |
| CCOc1ccccc1-n1ccn(Cc2nc(-c3ccc(C)c(C)c3)no2)c(=O)c1=O | 958 s |
| CCN1CCN(c2nccc(-c3cnc4nc(-c5ccncc5)nn4c3C)n2)CC1 | 562 s |
| Cc1ccc(CN2CCn3c(nn(CC4CC4)c3=O)C2)nc1 | 561 s |
| CCc1ccc(NC(=O)Cn2c(CC)nc3c(c2=O)CN(Cc2ccccc2)CC3)cc1 | 710 s |
| O=C(Nc1ccc2nccnc2c1)c1csc2c1CCCC2 | 804 s |
| Cc1cc(C(=O)CN2CCN(C)CC2)c(C)n1-c1cccc(C(F)(F)F)c1 | 588 s |
| Cc1nc(SCC(=O)Nc2nc3ccccc3s2)c2c(=O)n(C)c(=O)n(C)c2n1 | 793 s |
| O=[N+]([O-])c1cc(O)c(O)c([N+](=O)[O-])c1 | 730 s |

| Structure (SMILES) | RP-LC retention time |
| --- | --- |
| Cc1cccc(CNC(=O)C2CCN(S(=O)(=O)c3cn(C(C)C)cn3)CC2)c1 | 773 s |
| CC(=O)N(C)Cc1nc2ccccc2n1CC(=O)N1CCCC1 | 581 s |
| Cc1cc(N)c2cc(NC(=O)/C=C\c3ccccc3Cl)ccc2n1 | 751 s |
| CNC(=O)CSc1nnc(N2CCN(C(=O)Cc3ccc([N+](=O)[O-])cc3)CC2)s1 | 618 s |
| Cc1ccnc(Nc2nc(CC(=O)N3CCN(S(C)(=O)=O)CC3)cs2)c1 | 565 s |
| CCn1ccc(C(=O)Nc2ccc3c(c2)Sc2ncccc2C(=O)N3C(C)C)n1 | 790 s |
| Cc1ccc(N2C(=O)C3N=NN(Cc4nc(-c5ccccc5)no4)C3C2=O)cc1C (stereo not drawn) | 1020 s |
| Cc1cccn2cc(-c3cccc(S(=O)(=O)N4CC(C)CC(C)C4)c3)nc12 (stereo not drawn) | 828 s |
| C[C@@]1(c2cc(-c3cncnc3)c(F)cc2F)CCSC(N)=N1 | 654 s |
| CCc1cc(=O)n(CC(=O)Nc2ccc(OC)c(F)c2)c(N2CCOCC2)n1 | 719 s |
| CCn1ncc(NC(=O)COc2cccc(C)c2C)c(N2CCCCC2)c1=O | 1230 s |
| Cc1ccc(-c2ccc(-n3nc(C)c(S(=O)(=O)Nc4ccc5c(c4)OCCO5)c3C)nn2)cc1 | 1010 s |
| Cc1ccccc1Nc1nc(N)c2c(F)cccc2n1 | 610 s |
| COc1ccc(-n2ccc(=O)c(-c3nc(-c4ccc(OC)c(OC)c4)no3)n2)cc1 | 788 s |
| Cc1cccc(NC(=O)Cn2c(=O)n(-c3cccc(C)c3)c(=O)c3c2cc(C)n3C)c1 | 888 s |
| CCCCCCNc1nc(-c2ccc(OC)cc2)c(CCC(=O)O)s1 | 716 s |
| COCCN1C(=O)[C@H]2CN(Cc3cccc(Br)c3)C[C@H]2C1=O | 656 s |
| Cc1noc(C)c1-c1ccc(S(=O)(=O)NCc2ccccc2)cc1 | 916 s |
| COc1ccc(-c2noc(CN3N=NC4C(=O)N(c5cccc(F)c5)C(=O)C43)n2)c(OC)c1 (stereo not drawn) | 610 s |
| O=C(Nc1ccc2c(c1)OCO2)C1CCN(c2cnc3nccnc3c2)CC1 | 690 s |
| CN(C)CCNc1ccc(-c2nc(-c3cccc(F)c3)no2)cn1 | 678 s |
